Results: patent US20160279146A1, “METHODS AND PHARMACEUTICAL FORMULATIONS FOR TREATMENT OF SELECTIVE ESTROGEN-RECEPTOR MODULATOR-INDUCED ADVERSE DRUG REACTIONS” (priority 2013, published 2016)

What was measured:
healthy females [1] = assay: 15 Words Test; format: in vivo, human; conditions: after 4 daily doses; for 15 words direct / 15 words recall: number of recalled words; for 15 words direct: total in 5 consecutive trials; for 15 words recognition: number of words
Experimental: (§1) 2 healthy females performed a number of neuropsychological tests at baseline, after taking 40 mg/day of tamoxifen for 4 consecutive days, and after taking 40 mg/day of tamoxifen combined with 0.5 mg/day of sublingual testosterone for 4 consecutive days, to investigate any beneficial effects of sublingual testosterone in women taking a selective estrogen-receptor modulator (SERM).
The 15 Words Test (15WT) is developed to investigate episodic memory problems in patients with brain disorders. It is the Dutch version of the Auditory Verbal Learning Test (REF?). This test consists of 15 words, which have to be learned during five trials. After every trial the respondent is asked to recall as many words as possible. After a distraction period of 20 minutes, the respondent is, again asked to name the words they have learned before.

healthy females [2] = conditions: 2 healthy females; after 4 daily doses versus baseline
Source text: Intra-Extra Dimensional Set Shift (IED)
Two artificial dimensions are used in the test: • color-filled shapes • white lines
Simple stimuli are made up of just one of these dimensions, whereas compound stimuli are made up of both, namely white lines overlying colour-filled shapes. The participant starts by seeing two simple colour-filled shapes, and must learn which one is correct by touching it.
Feedback teaches the participant which stimulus is correct, and after six correct responses, the stimuli and/or rules are changed. These shifts are initially intra-dimensional (e.g. colour filled shapes remain the only relevant dimension), then later extra-dimensional (white lines become the only relevant dimension). Participants progress through the test by satisfying a set criterion of learning at each stage (six consecutive correct responses). If at any stage the participant fails to reach this criterion after 50 trials, the test terminates. […]

healthy females [3] = assay: Neuropsychological tests, proof of concept study: conclusions per neuropsychological domain; format: in vivo, human; conditions: for Effect regarding executive functioning: 1 subject (trail making B), an indication; for Effect regarding information processing speed: both subjects, multiple indications
Experimental: as §1
In this proof of concept study, 2 healthy females performed a number of neuropsychological tests to investigate any beneficial effects of sublingual testosterone in women taking a SERM. The following neuropsychological domains were investigated (tasks are in brackets, see below for more information): • Information processing speed (Big/Little Circle, Choice Reaction Time, Match to Sample Visual Search, Trail making task A, 5-Choice Reaction Time) • Executive functioning (Intra-Extra Dimensional Set Shift, Trail making task B) • Reaction speed (Single Choice Reaction Time) • Working memory (Rapid Visual Information Processing) • Verbal memory (15-words task)
If tamoxifen in these women were to have detrimental effects on their cognitive functioning, a decrease in speed and/or accuracy on either of these tasks was expected.

healthy females [4] = assay: Rapid Visual Information Processing (RVP); format: in vivo, human; conditions: 2 healthy females; after 4 daily doses versus baseline
Source text: A white box appears in the centre of the computer screen, inside which digits, from 2 to 9, appear in a pseudo-random order, at the rate of 100 digits per minute.
The nine RVP outcome measures cover latency, probabilities and sensitivity.

| SMILES | 15 words direct (healthy females [1]; Subject 1) | 15 words recall (healthy females [1]; Subject 1) | 15 words recognition (healthy females [1]; Subject 1) | 15 words direct (healthy females [1]; Subject 2) | 15 words recall (healthy females [1]; Subject 2) | 15 words recognition (healthy females [1]; Subject 2) | IED task result (healthy females [2]) | Effect regarding executive functioning (healthy females [3]) | Effect regarding information processing speed (healthy females [3]) | RVP task result (healthy females [4]) | Effect regarding verbal memory (healthy females [3]; 1 subject (15 words recall)) |
| --- | --- | --- | --- | --- | --- | --- | --- | --- | --- | --- | --- |
| CC/C(=C(\c1ccccc1)c1ccc(OCCN(C)C)cc1)c1ccccc1 [TAMOXIFEN, (Z)-2-[4-(1,2-diphenylbut-1-enyl)phenoxy]-N,N-dimethyl-ethanamine] | 51 | 6 | 27 | 43 | 9 | 28 | no effects | deteriorating effects | deteriorating effects | no effects |  |
| C[C@]12CC[C@H]3[C@@H](CCC4=CC(=O)CC[C@@]43C)[C@@H]1CC[C@@H]2O [testosterone] |  |  |  |  |  |  |  | positive effects | positive effects |  | positive effect |
